# Columns and labels:
# [1] = target: Mu-type opioid receptor (Homo sapiens) (UniProt P35372); conditions: Compound concentration 10.0 uM
# [2] = target: Focal adhesion kinase 1 (Homo sapiens) (UniProt Q05397); conditions: Compound concentration 1000.0 nM
# [3] = test system: Tyrosine-protein kinase ABL1 (Homo sapiens), P00519 [F317L]; conditions: Compound concentration 1000.0 nM
# [4] = test system: Mast/stem cell growth factor receptor Kit (Homo sapiens), P10721 [A829P]; conditions: Compound concentration 1000.0 nM
# [5] = target: Cyclin-dependent kinase 15 (Homo sapiens) (UniProt Q96Q40); conditions: Compound concentration 1000.0 nM
# [6] = target: Receptor tyrosine-protein kinase erbB-4 (Homo sapiens) (UniProt Q15303); conditions: Compound concentration 1000.0 nM
# [7] = target: Serine/threonine-protein kinase WNK4 (Homo sapiens) (UniProt Q96J92); conditions: Compound concentration 1000.0 nM
# [8] = target: TGF-beta receptor type-1 (Homo sapiens) (UniProt P36897); conditions: Compound concentration 1000.0 nM
# [9] = target: Phosphatidylinositol 4,5-bisphosphate 3-kinase catalytic subunit delta isoform (Homo sapiens) (UniProt O00329); conditions: Compound concentration 1000.0 nM
# [10] = target: Tyrosine-protein kinase SYK (Homo sapiens) (UniProt P43405); conditions: Compound concentration 1000.0 nM
# [11] = target: Kappa-type opioid receptor (Homo sapiens) (UniProt P41145); conditions: Compound concentration 10.0 uM
# [12] = target: Maternal embryonic leucine zipper kinase (Homo sapiens) (UniProt Q14680); conditions: Compound concentration 1000.0 nM
# Sequence of Maternal embryonic leucine zipper kinase (Homo sapiens) (Q14680 whole entry, looked up): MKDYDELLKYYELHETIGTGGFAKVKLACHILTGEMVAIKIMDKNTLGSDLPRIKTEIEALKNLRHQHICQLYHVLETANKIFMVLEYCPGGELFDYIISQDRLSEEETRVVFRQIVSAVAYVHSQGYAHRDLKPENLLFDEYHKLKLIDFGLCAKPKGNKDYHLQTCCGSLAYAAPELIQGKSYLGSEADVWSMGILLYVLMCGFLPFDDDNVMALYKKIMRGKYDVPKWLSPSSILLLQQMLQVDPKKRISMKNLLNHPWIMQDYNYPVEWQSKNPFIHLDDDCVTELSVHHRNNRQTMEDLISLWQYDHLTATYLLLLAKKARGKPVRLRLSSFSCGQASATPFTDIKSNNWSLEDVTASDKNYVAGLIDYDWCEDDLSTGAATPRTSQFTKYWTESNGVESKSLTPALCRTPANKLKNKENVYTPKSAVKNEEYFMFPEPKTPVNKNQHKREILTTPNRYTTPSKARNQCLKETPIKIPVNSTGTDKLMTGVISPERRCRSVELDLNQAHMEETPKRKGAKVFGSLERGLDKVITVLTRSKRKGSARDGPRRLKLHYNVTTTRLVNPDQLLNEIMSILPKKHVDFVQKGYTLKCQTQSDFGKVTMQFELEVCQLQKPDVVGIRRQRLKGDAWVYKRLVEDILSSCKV
# [13] = target: RAC-gamma serine/threonine-protein kinase (Homo sapiens) (UniProt Q9Y243); conditions: Compound concentration 1000.0 nM
# [14] = test system: Receptor-type tyrosine-protein kinase FLT3 (Homo sapiens), P36888 [D835V]; conditions: Compound concentration 1000.0 nM
# [15] = target: Mitogen-activated protein kinase kinase kinase 2 (Homo sapiens) (UniProt Q9Y2U5); conditions: Compound concentration 1000.0 nM
# [16] = target: Dual specificity mitogen-activated protein kinase kinase 7 (Homo sapiens) (UniProt O14733); conditions: Compound concentration 1000.0 nM
# Sequence of Dual specificity mitogen-activated protein kinase kinase 7 (Homo sapiens) (O14733 whole entry): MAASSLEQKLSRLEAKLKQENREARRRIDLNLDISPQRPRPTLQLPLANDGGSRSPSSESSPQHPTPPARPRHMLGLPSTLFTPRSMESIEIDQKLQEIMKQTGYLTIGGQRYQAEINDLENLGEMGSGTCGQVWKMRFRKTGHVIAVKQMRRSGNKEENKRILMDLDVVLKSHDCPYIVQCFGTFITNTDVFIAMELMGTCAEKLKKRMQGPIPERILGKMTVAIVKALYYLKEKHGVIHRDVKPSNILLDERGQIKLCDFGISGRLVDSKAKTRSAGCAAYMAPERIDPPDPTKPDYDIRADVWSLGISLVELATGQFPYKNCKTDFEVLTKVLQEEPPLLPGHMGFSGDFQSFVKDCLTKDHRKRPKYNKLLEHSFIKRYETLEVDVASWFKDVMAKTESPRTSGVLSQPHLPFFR
# [17] = target: 5-hydroxytryptamine receptor 2A (Homo sapiens) (UniProt P28223); conditions: Compound concentration 10.0 uM
# [18] = target: Mitogen-activated protein kinase kinase kinase 1 (Homo sapiens) (UniProt Q13233); conditions: Compound concentration 1000.0 nM
# [19] = test system: Receptor-type tyrosine-protein kinase FLT3 (Homo sapiens), P36888 [D835Y]; conditions: Compound concentration 1000.0 nM
# [20] = target: Mitogen-activated protein kinase kinase kinase 13 (Homo sapiens) (UniProt O43283); conditions: Compound concentration 1000.0 nM
# [21] = target: Receptor tyrosine-protein kinase erbB-2 (Homo sapiens) (UniProt P04626); conditions: Compound concentration 1000.0 nM
# [22] = target: Aurora kinase A (Homo sapiens) (UniProt O14965); conditions: Compound concentration 1000.0 nM
# Sequence of Aurora kinase A (Homo sapiens) (O14965 whole entry): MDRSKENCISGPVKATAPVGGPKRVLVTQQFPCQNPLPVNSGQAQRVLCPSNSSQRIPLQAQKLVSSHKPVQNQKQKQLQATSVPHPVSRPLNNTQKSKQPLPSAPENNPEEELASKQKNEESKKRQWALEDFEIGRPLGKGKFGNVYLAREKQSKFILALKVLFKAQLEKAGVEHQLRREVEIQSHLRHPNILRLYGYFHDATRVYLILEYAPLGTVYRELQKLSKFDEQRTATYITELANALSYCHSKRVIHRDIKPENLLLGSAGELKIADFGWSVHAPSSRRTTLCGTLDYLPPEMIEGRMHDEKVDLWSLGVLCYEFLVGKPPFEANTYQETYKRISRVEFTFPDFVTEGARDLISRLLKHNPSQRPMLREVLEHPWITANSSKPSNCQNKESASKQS
# [23] = target: Serine/threonine-protein kinase Sgk3 (Homo sapiens) (UniProt Q96BR1); conditions: Compound concentration 1000.0 nM
# [24] = target: Myosin-IIIb (Homo sapiens) (UniProt Q8WXR4); conditions: Compound concentration 1000.0 nM
# [25] = target: Mitogen-activated protein kinase 1 (Homo sapiens) (UniProt P28482); conditions: Compound concentration 1000.0 nM
# [26] = target: Serine/threonine-protein kinase WNK3 (Homo sapiens) (UniProt Q9BYP7); conditions: Compound concentration 1000.0 nM
# [27] = target: D(4) dopamine receptor (Homo sapiens) (UniProt P21917); conditions: Compound concentration 10.0 uM
# [28] = target: Death-associated protein kinase 3 (Homo sapiens) (UniProt O43293); conditions: Compound concentration 1000.0 nM
# [29] = target: Muscarinic acetylcholine receptor M1 (Homo sapiens) (UniProt P11229); conditions: Compound concentration 10.0 uM
# Sequence of Muscarinic acetylcholine receptor M1 (Homo sapiens) (P11229 whole entry): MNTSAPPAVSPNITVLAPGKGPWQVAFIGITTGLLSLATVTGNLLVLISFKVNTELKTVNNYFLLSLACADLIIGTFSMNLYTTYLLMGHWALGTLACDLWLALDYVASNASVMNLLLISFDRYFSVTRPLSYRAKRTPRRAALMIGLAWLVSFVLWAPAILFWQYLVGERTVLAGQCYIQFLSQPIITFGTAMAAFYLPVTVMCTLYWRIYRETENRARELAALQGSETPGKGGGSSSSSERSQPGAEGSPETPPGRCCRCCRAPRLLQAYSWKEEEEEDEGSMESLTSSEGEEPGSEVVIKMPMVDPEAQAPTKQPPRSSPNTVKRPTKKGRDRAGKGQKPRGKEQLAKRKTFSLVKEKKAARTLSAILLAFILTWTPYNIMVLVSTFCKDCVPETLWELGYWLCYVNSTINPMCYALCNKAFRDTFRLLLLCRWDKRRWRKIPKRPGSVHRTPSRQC
# [30] = test system: Receptor-type tyrosine-protein kinase FLT3 (Homo sapiens), P36888 [K663Q]; conditions: Compound concentration 1000.0 nM
# [31] = target: Angiopoietin-1 receptor (Homo sapiens) (UniProt Q02763); conditions: Compound concentration 1000.0 nM
# Sequence of Angiopoietin-1 receptor (Homo sapiens) (Q02763 whole entry): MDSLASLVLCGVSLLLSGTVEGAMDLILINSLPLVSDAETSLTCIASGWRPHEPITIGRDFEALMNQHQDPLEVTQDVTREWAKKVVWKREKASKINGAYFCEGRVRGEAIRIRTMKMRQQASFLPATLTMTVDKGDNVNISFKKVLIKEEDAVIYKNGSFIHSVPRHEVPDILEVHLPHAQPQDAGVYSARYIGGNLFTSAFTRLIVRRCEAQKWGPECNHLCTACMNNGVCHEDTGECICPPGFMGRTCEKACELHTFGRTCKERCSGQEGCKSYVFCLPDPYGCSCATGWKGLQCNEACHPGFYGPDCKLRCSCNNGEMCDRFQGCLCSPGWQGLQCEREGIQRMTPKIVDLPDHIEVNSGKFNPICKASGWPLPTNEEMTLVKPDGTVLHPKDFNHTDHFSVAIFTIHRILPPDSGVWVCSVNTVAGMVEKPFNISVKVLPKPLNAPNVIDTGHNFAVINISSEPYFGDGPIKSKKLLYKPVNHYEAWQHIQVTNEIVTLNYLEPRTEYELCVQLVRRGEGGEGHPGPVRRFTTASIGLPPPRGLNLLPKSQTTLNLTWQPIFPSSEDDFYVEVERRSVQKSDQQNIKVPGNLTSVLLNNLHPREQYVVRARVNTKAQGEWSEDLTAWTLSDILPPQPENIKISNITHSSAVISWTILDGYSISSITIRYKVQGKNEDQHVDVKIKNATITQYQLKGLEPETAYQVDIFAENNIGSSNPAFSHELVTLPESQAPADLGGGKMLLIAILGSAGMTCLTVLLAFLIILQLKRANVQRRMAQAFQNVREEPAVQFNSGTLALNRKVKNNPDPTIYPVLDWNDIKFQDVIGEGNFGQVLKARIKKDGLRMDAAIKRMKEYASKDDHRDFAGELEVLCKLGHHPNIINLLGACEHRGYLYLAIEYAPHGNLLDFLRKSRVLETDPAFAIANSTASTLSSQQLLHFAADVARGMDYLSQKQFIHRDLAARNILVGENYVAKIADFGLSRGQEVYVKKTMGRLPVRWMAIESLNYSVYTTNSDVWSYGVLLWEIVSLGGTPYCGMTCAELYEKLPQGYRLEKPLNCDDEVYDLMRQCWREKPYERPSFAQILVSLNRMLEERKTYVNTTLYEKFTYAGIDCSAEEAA
# [32] = target: Serine/threonine-protein kinase TAO3 (Homo sapiens) (UniProt Q9H2K8); conditions: Compound concentration 1000.0 nM
# [33] = target: Calcium/calmodulin-dependent protein kinase type II subunit beta (Homo sapiens) (UniProt Q13554); conditions: Compound concentration 1000.0 nM
# Sequence of Calcium/calmodulin-dependent protein kinase type II subunit beta (Homo sapiens) (Q13554 whole entry): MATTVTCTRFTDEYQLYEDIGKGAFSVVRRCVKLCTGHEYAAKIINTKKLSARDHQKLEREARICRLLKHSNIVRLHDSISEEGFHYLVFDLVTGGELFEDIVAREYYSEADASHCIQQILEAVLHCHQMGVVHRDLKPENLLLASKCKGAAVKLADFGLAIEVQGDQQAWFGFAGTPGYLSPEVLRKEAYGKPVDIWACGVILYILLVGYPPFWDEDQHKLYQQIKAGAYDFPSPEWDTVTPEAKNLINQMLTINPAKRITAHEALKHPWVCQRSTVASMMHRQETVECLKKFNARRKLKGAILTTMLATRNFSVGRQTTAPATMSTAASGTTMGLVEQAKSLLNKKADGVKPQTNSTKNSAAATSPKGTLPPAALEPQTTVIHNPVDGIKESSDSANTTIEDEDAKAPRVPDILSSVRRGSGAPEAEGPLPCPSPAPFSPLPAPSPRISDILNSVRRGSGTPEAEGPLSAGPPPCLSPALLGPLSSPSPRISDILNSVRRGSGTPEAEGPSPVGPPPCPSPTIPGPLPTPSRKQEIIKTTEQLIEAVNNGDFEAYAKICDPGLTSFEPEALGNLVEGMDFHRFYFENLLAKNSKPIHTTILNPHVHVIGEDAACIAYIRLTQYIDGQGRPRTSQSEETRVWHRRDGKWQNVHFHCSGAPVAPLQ
# [34] = target: Vascular endothelial growth factor receptor 1 (Homo sapiens) (UniProt P17948); conditions: Compound concentration 1000.0 nM
# [35] = target: Platelet-derived growth factor receptor beta (Homo sapiens) (UniProt P09619); conditions: Compound concentration 1000.0 nM
# [36] = target: Calcium/calmodulin-dependent protein kinase type 1D (Homo sapiens) (UniProt Q8IU85); conditions: Compound concentration 1000.0 nM
# [37] = target: Mitogen-activated protein kinase kinase kinase kinase 3 (Homo sapiens) (UniProt Q8IVH8); conditions: Compound concentration 1000.0 nM
# [38] = test system: Mast/stem cell growth factor receptor Kit (Homo sapiens), P10721 [L576P]; conditions: Compound concentration 1000.0 nM
# [39] = target: 1-phosphatidylinositol 3-phosphate 5-kinase (Homo sapiens) (UniProt Q9Y2I7); conditions: Compound concentration 1000.0 nM
# [40] = target: Serine/threonine-protein kinase 32B (Homo sapiens) (UniProt Q9NY57); conditions: Compound concentration 1000.0 nM
# [41] = target: Sigma non-opioid intracellular receptor 1 (Homo sapiens) (UniProt Q99720); conditions: Compound concentration 10.0 uM
# [42] = target: Cyclin-dependent kinase 18 (Homo sapiens) (UniProt Q07002); conditions: Compound concentration 1000.0 nM
# Rattus norvegicus = species on record: Rattus norvegicus; conditions: Compound concentration 10.0 uM
# [43] = target: Mitotic checkpoint serine/threonine-protein kinase BUB1 (Homo sapiens) (UniProt O43683); conditions: Compound concentration 1000.0 nM
# Sequence of Mitotic checkpoint serine/threonine-protein kinase BUB1 (Homo sapiens) (O43683 whole entry, looked up): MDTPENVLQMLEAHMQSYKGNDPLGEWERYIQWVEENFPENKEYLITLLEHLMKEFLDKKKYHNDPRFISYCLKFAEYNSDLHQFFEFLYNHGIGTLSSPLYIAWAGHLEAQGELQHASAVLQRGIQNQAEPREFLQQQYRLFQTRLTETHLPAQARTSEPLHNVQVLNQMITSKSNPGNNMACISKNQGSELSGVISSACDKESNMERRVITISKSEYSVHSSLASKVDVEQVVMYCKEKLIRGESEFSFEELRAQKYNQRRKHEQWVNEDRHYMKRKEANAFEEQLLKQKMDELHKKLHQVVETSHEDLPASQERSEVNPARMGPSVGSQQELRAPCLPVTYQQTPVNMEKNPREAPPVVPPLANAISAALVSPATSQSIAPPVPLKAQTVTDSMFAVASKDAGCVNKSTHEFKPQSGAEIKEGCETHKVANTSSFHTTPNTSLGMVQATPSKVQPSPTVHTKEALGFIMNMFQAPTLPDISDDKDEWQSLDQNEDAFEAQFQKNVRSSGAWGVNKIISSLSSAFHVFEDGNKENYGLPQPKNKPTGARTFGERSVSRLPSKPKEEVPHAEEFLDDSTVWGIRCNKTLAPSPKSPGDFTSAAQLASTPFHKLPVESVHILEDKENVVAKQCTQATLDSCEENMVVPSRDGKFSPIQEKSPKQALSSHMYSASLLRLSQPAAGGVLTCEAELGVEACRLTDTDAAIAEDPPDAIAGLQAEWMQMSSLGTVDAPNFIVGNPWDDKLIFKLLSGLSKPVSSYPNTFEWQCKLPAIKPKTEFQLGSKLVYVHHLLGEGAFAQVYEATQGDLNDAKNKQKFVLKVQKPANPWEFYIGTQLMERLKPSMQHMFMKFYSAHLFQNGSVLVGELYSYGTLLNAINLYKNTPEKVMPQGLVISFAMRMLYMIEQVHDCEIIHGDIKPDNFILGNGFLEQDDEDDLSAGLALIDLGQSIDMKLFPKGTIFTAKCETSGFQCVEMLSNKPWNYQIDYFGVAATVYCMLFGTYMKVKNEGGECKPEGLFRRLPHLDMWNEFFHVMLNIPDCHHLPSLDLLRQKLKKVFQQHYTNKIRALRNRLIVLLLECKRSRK
# [44] = target: Sigma intracellular receptor 2 (Homo sapiens) (UniProt Q5BJF2); conditions: Compound concentration 10.0 uM
# Sequence of Sigma intracellular receptor 2 (Homo sapiens) (Q5BJF2 whole entry): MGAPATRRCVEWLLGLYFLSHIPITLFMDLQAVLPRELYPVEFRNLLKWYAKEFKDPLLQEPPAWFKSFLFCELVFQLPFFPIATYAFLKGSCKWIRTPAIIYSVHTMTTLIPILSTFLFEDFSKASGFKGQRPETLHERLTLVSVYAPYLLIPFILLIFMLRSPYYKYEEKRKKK
# [45] = target: 5'-AMP-activated protein kinase catalytic subunit alpha-1 (Homo sapiens) (UniProt Q13131); conditions: Compound concentration 1000.0 nM
compound,measurement,setting,value
C[C@H](c1cccc(C#N)c1)n1cc(Cl)cc(C(N)=O)c1=N [(R)-9s],inhibition,[1],-5.45%
same,residual activity,[2],100%
same,residual activity,[3],75%
same,residual activity,[4],95%
same,residual activity,[5],84%
same,residual activity,[6],100%
same,residual activity,[7],97%
same,residual activity,[8],100%
same,residual activity,[9],99%
same,residual activity,[10],100%
same,inhibition,[11],-0.22%
same,residual activity,[12],74%
same,residual activity,[13],100%
same,residual activity,[14],89%
same,residual activity,[15],100%
same,residual activity,[16],72%
same,inhibition,[17],12.3%
same,residual activity,[18],90%
same,residual activity,[19],96%
same,residual activity,[20],97%
same,residual activity,[21],100%
same,residual activity,[22],97%
same,residual activity,[23],80%
same,residual activity,[24],92%
same,residual activity,[25],93%
same,residual activity,[26],80%
same,inhibition,[27],6.56%
same,residual activity,[28],100%
same,inhibition,[29],9.11%
same,residual activity,[30],100%
same,residual activity,[31],96%
same,residual activity,[32],67%
same,residual activity,[33],100%
same,residual activity,[34],100%
same,residual activity,[35],83%
same,residual activity,[36],97%
same,residual activity,[37],76%
same,residual activity,[38],93%
same,residual activity,[39],91%
same,residual activity,[40],100%
same,inhibition,[41],17.7%
same,residual activity,[42],100%
same,inhibition,Rattus norvegicus,10.7%
same,residual activity,[43],75%
same,inhibition,[44],53.6%
same,residual activity,[45],92%
C[C@@H](c1cccc(C#N)c1)n1cc(Cl)cc(C(N)=O)c1=N [(S)-9s],inhibition,[1],-6.83%
same,residual activity,[2],100%
same,residual activity,[3],85%
same,residual activity,[4],100%
same,residual activity,[5],89%
same,residual activity,[6],100%
same,residual activity,[7],98%
same,residual activity,[8],81%
same,residual activity,[9],100%
same,residual activity,[10],96%
same,inhibition,[11],1.2%
same,residual activity,[12],78%
same,residual activity,[13],100%
same,residual activity,[14],95%
same,residual activity,[15],100%
same,residual activity,[16],99%
same,inhibition,[17],5.24%
same,residual activity,[18],82%
same,residual activity,[19],97%
same,residual activity,[20],100%
same,residual activity,[21],96%
same,residual activity,[22],96%
same,residual activity,[23],77%
same,residual activity,[24],100%
same,residual activity,[25],82%
same,residual activity,[26],82%
same,inhibition,[27],10.1%
same,residual activity,[28],100%
same,inhibition,[29],14.9%
same,residual activity,[30],92%
same,residual activity,[31],90%
same,residual activity,[32],75%
same,residual activity,[33],100%
same,residual activity,[34],100%
same,residual activity,[35],84%
same,residual activity,[36],98%
same,residual activity,[37],100%
same,residual activity,[38],86%
same,residual activity,[39],100%
same,residual activity,[40],100%
same,inhibition,[41],17.4%
same,residual activity,[42],100%
same,inhibition,Rattus norvegicus,1.07%
same,residual activity,[43],93%
same,inhibition,[44],20.7%
same,residual activity,[45],100%
